Values quoted from earlier work in patent publication US12630801B2, “Stem cell-derived Schwann cells” (MEMORIAL SLOAN-KETTERING CANCER CENTER, priority 2016, dated 2026).

Tests used:
Conditions in all cases: Yu et al. 2008; Cuny et al. 2008
ALK2 = biological target: T1, ALK2 (Homo sapiens, UniProt Q04771)
T1 sequence (Q04771 21-509): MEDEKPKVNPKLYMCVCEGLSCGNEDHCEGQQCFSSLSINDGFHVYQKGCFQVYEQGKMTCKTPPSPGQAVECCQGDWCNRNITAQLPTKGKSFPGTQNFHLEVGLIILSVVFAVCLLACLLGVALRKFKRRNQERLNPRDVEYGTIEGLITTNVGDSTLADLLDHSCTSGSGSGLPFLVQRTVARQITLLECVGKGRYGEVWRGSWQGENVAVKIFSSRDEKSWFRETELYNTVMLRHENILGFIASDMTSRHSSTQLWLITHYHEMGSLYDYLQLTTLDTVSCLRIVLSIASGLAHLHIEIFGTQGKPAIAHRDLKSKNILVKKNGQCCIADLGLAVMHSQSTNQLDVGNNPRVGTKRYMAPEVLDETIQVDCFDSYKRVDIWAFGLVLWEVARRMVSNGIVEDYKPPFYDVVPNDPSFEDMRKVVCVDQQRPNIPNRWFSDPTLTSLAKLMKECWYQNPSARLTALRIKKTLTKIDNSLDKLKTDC

ALK3 = ALK3 (Homo sapiens, UniProt P36894)
Chain of ALK3 (P36894 24-532, species assumed): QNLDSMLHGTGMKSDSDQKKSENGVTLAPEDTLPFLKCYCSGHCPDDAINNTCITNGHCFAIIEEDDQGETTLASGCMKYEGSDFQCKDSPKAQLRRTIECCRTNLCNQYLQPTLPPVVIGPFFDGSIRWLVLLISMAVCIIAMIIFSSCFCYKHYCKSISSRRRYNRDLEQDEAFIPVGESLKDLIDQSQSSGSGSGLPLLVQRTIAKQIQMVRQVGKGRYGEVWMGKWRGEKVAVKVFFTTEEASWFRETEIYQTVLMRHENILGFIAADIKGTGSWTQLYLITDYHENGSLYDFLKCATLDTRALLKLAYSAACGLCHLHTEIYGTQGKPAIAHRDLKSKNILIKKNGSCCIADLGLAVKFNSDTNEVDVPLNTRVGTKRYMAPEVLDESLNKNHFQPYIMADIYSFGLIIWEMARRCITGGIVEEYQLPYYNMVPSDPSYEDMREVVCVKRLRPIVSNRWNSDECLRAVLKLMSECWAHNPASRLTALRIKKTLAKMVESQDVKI

ALK6 = ALK6 (Homo sapiens, UniProt O00238)
Chain of ALK6 (O00238 14-502): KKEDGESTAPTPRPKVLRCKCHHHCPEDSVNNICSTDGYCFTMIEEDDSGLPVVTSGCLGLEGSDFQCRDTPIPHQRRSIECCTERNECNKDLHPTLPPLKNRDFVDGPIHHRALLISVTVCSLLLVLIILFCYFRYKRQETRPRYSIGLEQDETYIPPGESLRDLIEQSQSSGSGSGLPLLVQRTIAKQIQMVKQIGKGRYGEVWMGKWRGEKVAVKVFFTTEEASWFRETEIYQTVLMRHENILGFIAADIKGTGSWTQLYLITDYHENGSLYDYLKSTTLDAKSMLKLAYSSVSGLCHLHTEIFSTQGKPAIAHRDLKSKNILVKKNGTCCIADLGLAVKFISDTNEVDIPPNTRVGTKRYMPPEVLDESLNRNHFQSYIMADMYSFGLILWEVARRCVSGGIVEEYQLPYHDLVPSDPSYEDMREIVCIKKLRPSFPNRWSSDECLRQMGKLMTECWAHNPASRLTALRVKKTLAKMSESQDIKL

c1ccc2c(-c3cnn4cc(-c5ccc(N6CCNCC6)cc5)cnc34)ccnc2c1 [LDN193189, 4-(6-(4-(piperazin-1-yl)phenyl)pyrazolo[1,5-a]pyrimidin-3-yl)quinoline]
highly potent small-molecule inhibitor: inhibition of ALK2 (ALK2) | inhibition of ALK3 (ALK3) | inhibition of ALK6 (ALK6)
